Data published in the NIST ThermoML archive (doi:10.1021/je200327s).

Assay: xn = mol fraction of the nth substance listed
Details: 101 kPa, Liquid, Vibrating tube method

Cc1cccc2c1sc1c(C)cccc12 [4,6-dimethyldibenzo[b,d]thiophene] + CCCCCCCCCCCC
mass density [kg/m3]
Details | x1 = 0.0031 | x1 = 0.0053 | x1 = 0.0076
298.2 K | 746.102 | 746.82 | 747.546
313.2 K | 735.193 | 735.931 | 736.664

Cc1cccc2c1sc1ccccc12 [4-methyldibenzothiophene] + CCCCCCCCCCCC
mass density [kg/m3]
Details | x1 = 0.0062 | x1 = 0.012 | x1 = 0.018 | x1 = 0.0242 | x1 = 0.0302 | x1 = 0.0526 | x1 = 0.0863 | x1 = 0.133 | x1 = 0.2685
298.2 K | 747.197 | 749.098 | 751.069 | 753.104 | 755.131 | 762.606 | 774.082 | 790.24 | –
313.2 K | 736.26 | 738.169 | 740.129 | 742.156 | 744.204 | 751.621 | 763.057 | 777.581 | 827.245

c1ccc2c(c1)sc1ccccc12 [dibenzothiophene] + C1CCCCC1
298.2 K
Details | mass density [kg/m3]
x1 = 0.0025 | 775.392
x1 = 0.0045 | 776.667
x1 = 0.0114 | 780.726
x1 = 0.0224 | 787.439

c1ccc2c(c1)sc1ccccc12 [dibenzothiophene] + CC(C)CC(C)(C)C
mass density [kg/m3]
Details | x1 = 0.0025 | x1 = 0.003 | x1 = 0.005 | x1 = 0.0063 | x1 = 0.0127 | x1 = 0.0149
298.2 K | 689.019 | – | 690.292 | – | 694.21 | 695.329
313.2 K | 676.548 | 676.845 | 677.841 | 678.505 | – | 683.13

c1ccc2c(c1)sc1ccccc12 [dibenzothiophene] + CCCCC
298.2 K
Details | mass density [kg/m3]
x1 = 0.0042 | 624.932
x1 = 0.0077 | 627.957
x1 = 0.0112 | 630.962
x1 = 0.0158 | 634.865

c1ccc2c(c1)sc1ccccc12 [dibenzothiophene] + CCCCCC
298.2 K
Details | mass density [kg/m3]
x1 = 0.0097 | 661.714
x1 = 0.0147 | 665.156
x1 = 0.0174 | 667.026

c1ccc2c(c1)sc1ccccc12 [dibenzothiophene] + CCCCCCC
298.2 K
Details | mass density [kg/m3]
x1 = 0.0056 | 683.108
x1 = 0.0119 | 686.774
x1 = 0.0176 | 690.099
x1 = 0.0218 | 692.551

c1ccc2c(c1)sc1ccccc12 [dibenzothiophene] + CCCCCCCC
mass density [kg/m3]
Details | x1 = 0.0026 | x1 = 0.0049 | x1 = 0.0063 | x1 = 0.0127 | x1 = 0.0187 | x1 = 0.0252
298.2 K | 699.866 | 701.048 | 701.696 | 704.954 | 707.967 | 711.182
313.2 K | 687.657 | 688.882 | 689.525 | 692.813 | 695.851 | 699.1

c1ccc2c(c1)sc1ccccc12 [dibenzothiophene] + CCCCCCCCC
mass density [kg/m3]
Details | x1 = 0.0032 | x1 = 0.0057 | x1 = 0.0072 | x1 = 0.0147 | x1 = 0.0216 | x1 = 0.0287 | x1 = 0.0343
298.2 K | 715.374 | 716.447 | 717.097 | 720.427 | 723.475 | 726.668 | 729.068
313.2 K | 703.613 | 704.689 | 705.41 | 708.85 | 711.795 | 715.175 | 717.135

c1ccc2c(c1)sc1ccccc12 [dibenzothiophene] + CCCCCCCCCC
mass density [kg/m3]
Details | x1 = 0.0034 | x1 = 0.0061 | x1 = 0.0082 | x1 = 0.0162 | x1 = 0.0259 | x1 = 0.0314
298.2 K | 727.461 | 728.541 | 729.331 | 732.459 | 736.262 | 738.412
313.2 K | 716.064 | 717.143 | 717.957 | 721.088 | 724.901 | 727.044
